Measurements from patent US12441679B2, “Acrylamide-substituted indane compounds and therapeutic use thereof” (Sanofi, priority 2020, dated 2025).

Tested on: YAP1-TEAD and TAZ-TEAD activity (TEAD responsive promoter element)
Experiment: TEAD-Luciferase Reporter Assay (8XGTIIC-Luciferase construct stably integrated in tumor cell lines)
Assay type: cell-based, human
Details: 8XGTIIC-Luciferase reporter in tumor cell lines, 48 hrs compound treatment, 10 doses 1-10000 nM
From the text: TEAD-Luciferase Reporter Assay
Luciferase-based gene reporter assays were used, employing the TEAD responsive promoter element that are stably integrated to different human tumor cell lines in order to monitor YAP1-TEAD and TAZ-TEAD activity and to study YAP1/TAZ-TEAD activity modulation by small molecule compounds. Luciferase-based gene reporter assays employing the GAPDH promoter element and stably integrated to different human tumor cell lines are used as counter screen control cell lines.
Tumor cell lines with stable integration of the 8XGTIIC-Luciferase construct (Dupont et al., Nature 2011) or the GAPDH-Luciferase control plasmid, are seeded in culture medium in 96-well plates at a density of 8000 cells/well. Following an overnight incubation in a 37° C., 5% CO2 growth chamber, cells are treated with compounds described above at 10 doses ranging between 1 and 10000 nM for 48 hrs. After compound incubation, cells are lysed with Bright-Glo Luciferase Assay System (Promega E2620) and luciferase activity is measured using a luminescent plate reader.
The inhibitory activity of the compounds with respect to luciferase activity is given by the concentration which inhibits 50% of activity of non-treated cells. IC50s are determined with a nonlinear regression model on XLfit software analysis (IDBS, UK).

| SMILES | IC50 (Homo sapiens) [nM] | IC50 [nM] |
| --- | --- | --- |
| C=CC(=O)Nc1ccc2c(c1)C(OCCCC(F)(F)F)CC2 (stereo not shown) [Example 33, N-(3-(4,4,4-trifluorobutoxy)-2,3-dihydro-1H-inden-5-yl)acrylamide] | 170 |  |
| C=CC(=O)Nc1ccc2c(c1)C(OCCCCF)CC2 (stereo not shown) [Example 34, N-(3-(4-fluorobutoxy)-2,3-dihydro-1H-inden-5-yl)acrylamide] | 2530 |  |
| C=CC(=O)Nc1ccc2c(c1)C(OC1CCC(F)(F)CC1)CC2 (stereo not shown) [Example 35, N-(3-((4,4-difluorocyclohexyl)oxy)-2,3-dihydro-1H-inden-5-yl)acrylamide] | 583 |  |
| C=CC(=O)Nc1ccc2c(c1)C(Oc1ccc(C(F)(F)F)cc1)CC2 (stereo not shown) [Example 37, N-(3-(4-(trifluoromethyl)phenoxy)-2,3-dihydro-1H-inden-5-yl)acrylamide] | 24 |  |
| C=CC(=O)Nc1ccc2c(c1)C(Oc1ccccc1)CC2 (stereo not shown) [Example 38, N-(3-phenoxy-2,3-dihydro-1H-inden-5-yl)acrylamide] | 74 |  |
| C=CC(=O)Nc1ccc2c(c1)C(Oc1cccc(C(F)(F)F)c1)CC2 (stereo not shown) [Example 39, N-(3-(3-(trifluoromethyl)phenoxy)-2,3-dihydro-1H-inden-5-yl)acrylamide] | 53 |  |
| C=CC(=O)Nc1ccc2c(c1)C(Oc1ccc(F)c(F)c1)CC2 (stereo not shown) [Example 40, N-(3-(3,4-difluorophenoxy)-2,3-dihydro-1H-inden-5-yl)acrylamide] | 15 |  |
| C=CC(=O)Nc1ccc2c(c1)C(Oc1cccc(F)c1)CC2 (stereo not shown) [Example 41, N-(3-(3-fluorophenoxy)-2,3-dihydro-1H-inden-5-yl)acrylamide] | 87 |  |
| C=CC(=O)Nc1ccc2c(c1)C(Oc1ccc(F)cc1)CC2 (stereo not shown) [Example 42, N-(3-(4-fluorophenoxy)-2,3-dihydro-1H-inden-5-yl)acrylamide] | 29 |  |
| C=CC(=O)Nc1ccc2c(c1)C(Oc1cc(F)cc(F)c1)CC2 (stereo not shown) [Example 43, N-(3-(3,5-difluorophenoxy)-2,3-dihydro-1H-inden-5-yl)acrylamide] | 140 |  |
| C=CC(=O)Nc1ccc2c(c1)C(Oc1ccc(F)cc1F)CC2 (stereo not shown) [Example 44, N-(3-(2,4-difluorophenoxy)-2,3-dihydro-1H-inden-5-yl)acrylamide] | 38 |  |
| C=CC(=O)Nc1ccc2c(c1)CCC2Oc1cccc(C(F)(F)F)c1 (stereo not shown) [Example 45, N-(1-(3-(trifluoromethyl)phenoxy)-2,3-dihydro-1H-inden-5-yl)acrylamide] | 12 |  |
| C=CC(=O)Nc1ccc2c(c1)CCC2Oc1cccc(OC(F)(F)F)c1 (stereo not shown) [Example 46, N-(1-(3-(trifluoromethoxy)phenoxy)-2,3-dihydro-1H-inden-5-yl)acrylamide] | 4560 |  |
| C=CC(=O)Nc1ccc2c(c1)C(Oc1cccc(C(=O)OC)c1)CC2 (stereo not shown) [Example 47, methyl 3-[6-(prop-2-enoylamino)-2,3-dihydro-1H-inden-1-yl]oxybenzoate] | 4350 |  |
| C=CC(=O)Nc1ccc2c(c1)CC(Nc1ccc(C(F)(F)F)cc1)C2 (stereo not shown) [Example 52, N-[2-[4-(trifluoromethyl)anilino]-2,3-dihydro-1H-inden-5-yl]acrylamide] | 2820 |  |
| C=CC(=O)Nc1ccc2c(c1)C(Nc1cc(F)cc(F)c1)CC2 (stereo not shown) [Example 53, N-(3-((3,5-difluorophenyl)amino)-2,3-dihydro-1H-inden-5-yl)acrylamide] | 57 |  |
| C=CC(=O)Nc1ccc2c(c1)CCC2Nc1cccc(S(F)(F)(F)(F)F)c1 (stereo not shown) [Example 54, N-(1-((3-(pentafluoro-I6-sulfanyl)phenyl)amino)-2,3-dihydro-1H-inden-5-yl)acrylamide] |  | 388 |
| C=CC(=O)Nc1ccc2c(c1)CCC2Nc1cc(C(F)(F)F)ccn1 (stereo not shown) [Example 59, N-(1-((4-(trifluoromethyl)pyridin-2-yl)amino)-2,3-dihydro-1H-inden-5-yl)acrylamide 2,2,2-trifluoroacetate] | 60 |  |
| C=CC(=O)Nc1ccc2c(c1)CCC2Nc1cccc(C(F)(F)F)n1 (stereo not shown) [Example 60, N-(1-((6-(trifluoromethyl)pyridin-2-yl)amino)-2,3-dihydro-1H-inden-5-yl)acrylamide] | 346 |  |
| C=CC(=O)Nc1ccc2c(c1)CCC2Nc1cncc(C(F)(F)F)c1 (stereo not shown) [Example 61, N-(1-((5-(trifluoromethyl)pyridin-3-yl)amino)-2,3-dihydro-1H-inden-5-yl)acrylamide] | 178 |  |
| C=CC(=O)Nc1ccc2c(c1)CCC2N(C)c1cccc(C(F)(F)F)c1 (stereo not shown) [Example 62, N-(1-(methyl(3-(trifluoromethyl)phenyl)amino)-2,3-dihydro-1H-inden-5-yl)acrylamide] | 70 |  |
| C=CC(=O)Nc1ccc2c(c1)CCC2N(C)c1ccccc1 (stereo not shown) [Example 63, N-(1-(methyl(phenyl)amino)-2,3-dihydro-1H-inden-5-yl)acrylamide] | 144 |  |

| SMILES | IC50 (Homo sapiens) [nM] | IC50 [nM] |
| --- | --- | --- |
| C=CC(=O)Nc1ccc2c(c1)CCC2N(C)c1ccc(C(F)(F)F)cc1 (stereo not shown) [Example 64, N-(1-(methyl(4-(trifluoromethyl)phenyl)amino)-2,3-dihydro-1H-inden-5-yl)acrylamide] | 806 |  |
| C=CC(=O)Nc1ccc2c(c1)C(C)(C)CC2Nc1cccc(C(F)(F)F)c1 (stereo not shown) [Example 65, N-(3,3-dimethyl-1-((3-(trifluoromethyl)phenyl)amino)-2,3-dihydro-1H-inden-5-yl)acrylamide] | 1850 |  |
| C=CC(=O)Nc1ccc2c(c1)C(C)(C)CC2Nc1ccc(C(F)(F)F)cc1 (stereo not shown) [Example 66, N-(3,3-dimethyl-1-((4-(trifluoromethyl)phenyl)amino)-2,3-dihydro-1H-inden-5-yl)acrylamide] | 863 |  |
| C=CC(=O)Nc1cc(F)c2c(c1)CCC2Nc1cccc(C(F)(F)F)c1 (stereo not shown) [Example 67, N-[7-fluoro-1-[3-(trifluoromethyl)anilino]-2,3-dihydro-1H-inden-5-yl]acrylamide] | 53 |  |
| C=CC(=O)Nc1ccc2c(c1F)CCC2Nc1ccc(C(F)(F)F)cc1 (stereo not shown) [Example 68, N-[4-fluoro-1-[4-(trifluoromethyl)anilino]-2,3-dihydro-1H-inden-5-yl]acrylamide] | 290 |  |
| C=CC(=O)N(C)c1ccc2c(c1)CCC2Nc1ccc(C(F)(F)F)cc1 (stereo not shown) [Example 69, N-methyl-N-(1-((4-(trifluoromethyl)phenyl)amino)-2,3-dihydro-1H-inden-5-yl)acrylamide] | 349 |  |
| C=CC(=O)Nc1ccc2c(c1)C(NC1CCC(F)(F)CC1)CC2 (stereo not shown) [Example 70, N-(3-((4,4-difluorocyclohexyl)amino)-2,3-dihydro-1H-inden-5-yl)acrylamide] | 5260 |  |
| C=CC(=O)Nc1ccc2c(c1)C(OC1CCC(C(F)(F)F)C1)CC2 (stereo not shown) [Example 71, N-(3-((3-(trifluoromethyl)cyclopentyl)oxy)-2,3-dihydro-1H-inden-5-yl)acrylamide] | 820 |  |
| C=CC(=O)Nc1ccc2c(c1)C(OCCCCC(F)(F)F)CC2 (stereo not shown) [Example 72, N-(3-((5,5,5-trifluoropentyl)oxy)-2,3-dihydro-1H-inden-5-yl)acrylamide] | 861 |  |
| C=CC(=O)Nc1ccc2c(c1)C(OCCCC(F)F)CC2 (stereo not shown) [Example 73, N-(3-(4,4-difluorobutoxy)-2,3-dihydro-1H-inden-5-yl)acrylamide] | 1310 |  |
| C=CC(=O)Nc1ccc2c(c1)C(OCC(F)(F)F)CC2 (stereo not shown) [Example 74, N-(3-(2,2,2-trifluoroethoxy)-2,3-dihydro-1H-inden-5-yl)acrylamide] | 3690 |  |
| C=CC(=O)Nc1ccc2c(c1)C(OCCC(F)(F)F)CC2 (stereo not shown) [Example 75, N-(3-(3,3,3-trifluoropropoxy)-2,3-dihydro-1H-inden-5-yl)acrylamide] | 4720 |  |
| C=CC(=O)N(C)c1ccc2c(c1)CCC2OC1CCC(C(F)(F)F)CC1 (stereo not shown) [Example 76, N-methyl-N-(1-((4-(trifluoromethyl)cyclohexyl)oxy)-2,3-dihydro-1H-inden-5-yl)acrylamide] | 777 |  |
| C=CC(=O)Nc1ccc2c(c1)C(Oc1ccc(Cl)cc1)CC2 (stereo not shown) [Example 77, N-(3-(4-chlorophenoxy)-2,3-dihydro-1H-inden-5-yl)acrylamide] | 56 |  |
| C=CC(=O)Nc1ccc2c(c1)C(Oc1cccc(Cl)c1)CC2 (stereo not shown) [Example 78, N-(3-(3-chlorophenoxy)-2,3-dihydro-1H-inden-5-yl)acrylamide] | 52 |  |
| C=CC(=O)Nc1ccc2c(c1)C(Oc1cccc(C)c1)CC2 (stereo not shown) [Example 79, N-(3-(m-tolyloxy)-2,3-dihydro-1H-inden-5-yl)acrylamide] | 8670 |  |
| C=CC(=O)Nc1ccc2c(c1)C(Oc1cccc(SC)c1)CC2 (stereo not shown) [Example 80, N-(3-(3-(methylthio)phenoxy)-2,3-dihydro-1H-inden-5-yl)acrylamide] | 300 |  |
| C=CC(=O)Nc1ccc2c(c1)C(Oc1cccc(C3CC3)c1)CC2 (stereo not shown) [Example 81, N-(3-(3-cyclopropylphenoxy)-2,3-dihydro-1H-inden-5-yl)acrylamide] | 117 |  |
| C=CC(=O)Nc1ccc2c(c1)CCC2Oc1ccc(C(F)(F)F)cc1 (stereo not shown) [Example 82, N-(1-(4-(trifluoromethyl)phenoxy)-2,3-dihydro-1H-inden-5-yl)acrylamide] | 31 |  |
| C=CC(=O)N(C)c1ccc2c(c1)CCC2Oc1ccc(C(F)(F)F)cc1 (stereo not shown) [Example 83, N-methyl-N-(1-(4-(trifluoromethyl)phenoxy)-2,3-dihydro-1H-inden-5-yl)acrylamide] | 109 |  |
| C=CC(=O)Nc1ccc2c(c1)C(Oc1ccc(C(F)(F)F)cn1)CC2 (stereo not shown) [Example 88, N-[3-[[5-(trifluoromethyl)pyridin-2-yl]oxy]-2,3-dihydro-1H-inden-5-yl]acrylamide] | 51 |  |
